Measurements: PMC4610730 (Journal of medicinal chemistry, 2015)

Assays:
APOBEC3G (A3G) = APOBEC3G (A3G) (Homo sapiens, UniProt Q9HC16); experiment: Fluorescence-based ssDNA C-to-U DNA deaminase assay, A3G; assay type: biochemical; details: for A3G inhibitory activity: substructures of the decomposition products, data not shown
APOBEC3A (A3A) = APOBEC3A (A3A) (Homo sapiens, UniProt P31941); experiment: Fluorescence-based ssDNA C-to-U DNA deaminase assay, A3A; assay type: biochemical
[1] = LC-MS analysis of aged DMSO stocks; assay type: physicochemical; details: DMSO stock, LC-MS on day 38; for Decomposition product observed: carboxylic acid (analogous to 6) / Decomposition product observed: enone (analogous to 8) / Decomposition product observed: lactam (analogous to 5): Table 1; for Decomposition product observed: bis-enone (equivalent to 8) / Decomposition product observed: carboxylic acid (equivalent to 6) / Decomposition product observed: lactam (equivalent to 5): Table 2
[2] = Aging of 1 under photochemical conditions; assay type: physicochemical; details: 10 mM DMSO, visible light 300 W, N2 atmosphere (balloon, 1 atm), 9 h, no sensitizer
[3] = Aging of DMSO stocks of 1 under varied conditions; assay type: physicochemical
[4] = Storage stability of isolated decomposition products; assay type: physicochemical; details: significant periods of time
[5] = freshly synthesized and solubilized, day 0, dose response up to 200 μM

Sequence of APOBEC3G (A3G) (Q9HC16 whole entry): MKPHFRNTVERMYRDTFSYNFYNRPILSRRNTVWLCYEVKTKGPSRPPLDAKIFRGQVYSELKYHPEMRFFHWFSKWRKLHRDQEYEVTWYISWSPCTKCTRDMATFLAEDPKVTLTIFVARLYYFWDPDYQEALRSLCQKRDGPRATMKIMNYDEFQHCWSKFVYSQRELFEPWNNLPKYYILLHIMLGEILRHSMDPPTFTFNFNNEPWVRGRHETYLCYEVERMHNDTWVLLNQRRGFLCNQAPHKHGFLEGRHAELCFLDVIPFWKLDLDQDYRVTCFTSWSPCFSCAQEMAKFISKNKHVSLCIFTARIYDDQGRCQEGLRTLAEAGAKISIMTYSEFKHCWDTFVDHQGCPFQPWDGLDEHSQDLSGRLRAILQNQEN
Sequence of APOBEC3A (A3A) (P31941 whole entry): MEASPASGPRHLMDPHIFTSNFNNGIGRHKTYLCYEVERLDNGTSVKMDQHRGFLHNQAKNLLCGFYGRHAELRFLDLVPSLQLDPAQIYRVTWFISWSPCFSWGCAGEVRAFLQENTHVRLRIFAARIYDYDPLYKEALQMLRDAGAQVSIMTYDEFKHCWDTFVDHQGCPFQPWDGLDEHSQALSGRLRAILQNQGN

Row | Structure (SMILES) | Decomposition product observed: carboxylic acid (analogous to 6) [1] | Decomposition product observed: enone (analogous to 8) [1] | Decomposition product observed: lactam (analogous to 5) [1] | Decomposition product observed: bis-enone (equivalent to 8) [1] | Decomposition product observed: carboxylic acid (equivalent to 6) [1] | Decomposition product observed: lactam (equivalent to 5) [1] | other results
1 | O=C(O)c1cc(O)nc2ccccc12 [2-Hydroxyquinonline-4-carboxylic acid] |  |  |  |  |  |  | A3G inhibitory activity (APOBEC3G (A3G)): inactive
2 | Cc1ccc(-c2cc(C(=O)Nc3nnc(-c4ccncc4)s3)c3ccccc3n2)o1 [compound 1, 2-(5-Methylfuran-2-yl)-N-(5-(pyridin-4-yl)-1,3,4-thiadiazol-2-yl)quinoline-4-carboxamide] | + 378.1 (378.1) | + 430.1 (430.1) | + 350.1 (350.1) | + 430.1 (430.1) | + 378.1 (378.1) | + 350.1 (350.1) | inhibitory activity against A3A (APOBEC3A (A3A); aged DMSO stock of synthesized compound): never recovered; A3A inhibition (APOBEC3A (A3A); [5]): no inhibition; A3G inhibition (APOBEC3G (A3G); [5]): no inhibition; decomposition under irradiation [2]: virtually no decomposition; decomposition of DMSO stock ([3]; 10 mM DMSO stock aged in the dark): no decomposition; decomposition of DMSO stock ([3]; 10 mM DMSO stock aged in the presence of NaN3): no decomposition; decomposition of DMSO stock ([3]; 10 mM DMSO stock aged under inert conditions (N2)): drastically reduced decomposition; rate of decomposition versus storage temperature ([3]; DMSO stock stored at -20 °C vs. rt vs. 37 °C, data not shown): same rate regardless of the temperature
3 | Nc1nnc(-c2ccncc2)s1 [compound 4, 5-(pyridin-4-yl)-1,3,4-thiadiazol-2-amine] |  |  |  |  |  |  | A3G inhibitory activity (APOBEC3G (A3G)): inactive
4 | CC(=O)/C=C\C(=O)c1cc(C(=O)Nc2nnc(-c3ccncc3)s2)c2ccccc2n1 [compound 8, (Z)-2-(4-oxopent-2-enoyl)-N-(5-(pyridin-4-yl)-1,3,4-thiadiazol-2-yl)quinoline-4-carboxamide] |  |  |  |  |  |  | stability for storage in organic solvents [4]: not stable
5 | Cc1ccc(-c2cc(C(=O)Nc3nnc(-c4ccncc4)s3)ccn2)o1 [compound 15] | + 328.2 (328.0) | + 380.2 (380.1) | - |  |  |  | 
6 | Cc1ccc(-c2cc(C(=O)O)ccn2)o1 [compound 16] | - | + 220.1 (220.1) | - |  |  |  | 
7 | Cc1ccc(-c2cc(C(=O)Nc3nnc(-c4ccncc4)s3)c3ccccc3c2)o1 [compound 19] | + 377.2 (377.1) | + 429.2 (429.1) | - |  |  |  | 
8 | Cc1ccc(-c2cc(C(=O)NC3CCCCC3)c3ccccc3n2)o1 [compound 27] |  |  |  | + 351.2 (351.2) | + 299.1 (299.1) | + 271.1 (271.1) | 
9 | Cc1ccc(-c2cc(C(=O)NCc3ccc4c(c3)OCO4)c3ccccc3n2)o1 [compound 29] |  |  |  | + 403.1 (403.1) | + 351.2 (351.1) | + 323.1 (323.1) | 
10 | Cc1ccc(-c2cc(C(=O)N3CCN(S(C)(=O)=O)CC3)c3ccccc3n2)o1 [compound 31] |  |  |  | + 416.1 (416.1) | + 364.1 (364.1) | + 336.1 (336.1) | 
11 | COC(=O)c1cc(NC(=O)c2cc(-c3ccc(C)o3)nc3ccccc23)cc(C(=O)OC)c1 [compound 32] |  |  |  | + 461.1 (461.1) | + 409.1 (409.1) | + 381.1 (381.1) | 
12 | O=C(O)c1cc(C(=O)O)c2ccccc2n1 [quinoline-2,4-carboxylic acid] |  |  |  |  |  |  | A3G inhibitory activity (APOBEC3G (A3G)): inactive

More lines, main results first:

Row | Decomposition product observed: carboxylic acid (analogous to 6) [1] | Decomposition product observed: enone (analogous to 8) [1] | Decomposition product observed: lactam (analogous to 5) [1] | Decomposition product observed: bis-enone (equivalent to 8) [1] | Decomposition product observed: carboxylic acid (equivalent to 6) [1] | Decomposition product observed: lactam (equivalent to 5) [1] | Structure (SMILES) | other results
13 | + 218.1 (218.1) | + 270.1 (270.1) | + 190.1 (190.1) |  |  |  | Cc1ccc(-c2cc(C(=O)O)c3ccccc3n2)o1 [compound 12, 2-(5-Methylfuran-2-yl)quinoline-4-carboxylic acid] | 
14 | + 378.2 (378.1) | - | + 350.2 (350.1) |  |  |  | O=C(Nc1nnc(-c2ccncc2)s1)c1cc(-c2ccco2)nc2ccccc12 [compound 13] | 
15 | - | - | + 190.2 (190.1) |  |  |  | O=C(O)c1cc(-c2ccco2)nc2ccccc12 [compound 14] | 
16 | - | - | - |  |  |  | O=C(Nc1nnc(-c2ccncc2)s1)c1ccnc(-c2ccco2)c1 [compound 17] | 
17 | - | - | - |  |  |  | O=C(O)c1ccnc(-c2ccco2)c1 [compound 18] | 
18 | - | + 269.2 (269.1) | - |  |  |  | Cc1ccc(-c2cc(C(=O)O)c3ccccc3c2)o1 [compound 20] | 
19 | + 377.2 (377.1) | + 415.1 (415.1) | - |  |  |  | O=C(Nc1nnc(-c2ccncc2)s1)c1cc(-c2ccco2)cc2ccccc12 [compound 21] | 
20 | - | + 254.1 (254.1) | - |  |  |  | O=C(O)c1cc(-c2ccco2)cc2ccccc12 [compound 22] | 
21 | - | + 226.2 (226.2) | - |  |  |  | Cc1ccc(-c2ccc3ccccc3n2)o1 [compound 23] | 
22 | - | - | - |  |  |  | c1coc(-c2ccc3ccccc3n2)c1 [compound 24] | 
23 |  |  |  | + 367.2 (367.2) | + 315.1 (315.1) | + 287.1 (287.1) | Cc1ccc(-c2cc(C(=O)NC(C)C3CCCO3)c3ccccc3n2)o1 (stereo not drawn) [compound 25] | 
24 |  |  |  | + 360.2 (360.1) | + 308.1 (308.1) | + 280.1 (280.1) | Cc1cccc(NC(=O)c2cc(-c3ccc(C)o3)nc3ccccc23)n1 [compound 26] | 
25 |  |  |  | + 403.2 (403.2) | + 351.2 (351.1) | + 323.1 (323.1) | COc1ccc(CCNC(=O)c2cc(-c3ccc(C)o3)nc3ccccc23)cc1 [compound 28] | 
26 |  |  |  | - | + 357.1 (357.1) | + 329.1 (329.1) | O=C(NNC(=O)c1cc(-c2ccco2)nc2ccccc12)NC1CCCCC1 [compound 30] | 
